Experiments:
Details in all cases: 72 h
[1] = tested on: HepG2; test: relative viability EC50 (midpoint between 100% and the lowest measured viability); higher = less toxic
[2] = tested on: Caco-2; test: as above
[3] = tested on: Vero E6; test: as above
[4] = tested on: U2OS; test: as above
[5] = tested on: Calu-3; test: as above
[6] = tested on: HepG2; test: drug sensitivity score (DSS) for viability; higher = more toxic; extreme values may be limits of the assay
[7] = tested on: Caco-2; test: as above
[8] = tested on: Vero E6; test: as above
[9] = tested on: U2OS; test: as above
[10] = tested on: Calu-3; test: as above
[11] = tested on: HepG2; test: cell viability relative to DMSO; higher = less toxic
[12] = tested on: Caco-2; test: as above
[13] = tested on: Vero E6; test: as above
[14] = tested on: U2OS; test: as above
[15] = tested on: Calu-3; test: as above

| SMILES | relative viability EC50 [1] | relative viability EC50 [2] | relative viability EC50 [3] | relative viability EC50 [4] | relative viability EC50 [5] | drug sensitivity score [6] | drug sensitivity score [7] | drug sensitivity score [8] | drug sensitivity score [9] | drug sensitivity score [10] | cell viability ([11]; 1 nM) | cell viability ([11]; 10 nM) | cell viability ([11]; 100 nM) | cell viability ([11]; 1000 nM) | cell viability ([11]; 10000 nM) | cell viability ([12]; 1 nM) | cell viability ([12]; 10 nM) | cell viability ([12]; 100 nM) | cell viability ([12]; 1000 nM) | cell viability ([12]; 10000 nM) | cell viability ([13]; 1 nM) | cell viability ([13]; 10 nM) | cell viability ([13]; 100 nM) | cell viability ([13]; 1000 nM) | cell viability ([13]; 10000 nM) | cell viability ([14]; 1 nM) | cell viability ([14]; 10 nM) | cell viability ([14]; 100 nM) | cell viability ([14]; 1000 nM) | cell viability ([14]; 10000 nM) | cell viability ([15]; 1 nM) | cell viability ([15]; 10 nM) | cell viability ([15]; 100 nM) | cell viability ([15]; 1000 nM) | cell viability ([15]; 10000 nM) |
| --- | --- | --- | --- | --- | --- | --- | --- | --- | --- | --- | --- | --- | --- | --- | --- | --- | --- | --- | --- | --- | --- | --- | --- | --- | --- | --- | --- | --- | --- | --- | --- | --- | --- | --- | --- |
| CSc1ccc(C(=O)c2[nH]c(=O)[nH]c2C)cc1 [enoximone] | > 10 µM | > 10 µM | > 10 µM | > 10 µM | > 10 µM | 0 | 0 | 0 | 0 | 0 | 96.6% | 95.8% | 103% | 82.5% | 100% | 92.8% | 87.2% | 100% | 111% | 87% | 99.6% | 99.6% | 86% | 90.6% | 94.9% | 99.2% | 97.9% | 101% | 108% | 105% | 106% | 101% | 94.2% | 96.7% | 101% |
| CCCCCCCCCCCCCCCC(=O)C(F)(F)F [PACOCF3] | > 10 µM | > 10 µM | > 10 µM | > 10 µM | > 10 µM | 0 | 0 | 0 | 0 | 0 | 99.6% | 108% | 102% | 104% | 105% | 101% | 98.6% | 104% | 92.3% | 96.8% | 101% | 101% | 96.6% | 102% | 101% | 107% | 103% | 106% | 97.2% | 102% | 99.6% | 93.5% | 91.2% | 83.2% | 102% |
| CCc1cc(/C(C)=N/OCc2ccc(C3CCCCC3)c(C(F)(F)F)c2)ccc1CN1CC(C(=O)O)C1 [siponimod] | > 10 µM | > 10 µM | > 10 µM | > 10 µM | > 10 µM | 0 | 0.8 | 0 | 0 | 0 | 104% | 89.8% | 91.3% | 110% | 97.4% | 93.6% | 107% | 91.3% | 97.6% | 81.3% | 102% | 101% | 98.6% | 96.6% | 96.4% | 101% | 99.5% | 96.6% | 101% | 98.7% | 116% | 99.7% | 98.8% | 96.6% | 97.6% |
| C[C@]12CC[C@H](O)C[C@H]1CC[C@@H]1[C@@H]2C[C@@H](O)[C@]2(C)[C@@H](C3=CC(=O)OC3)CC[C@]12O [digoxigenin] | 0.52 µM | 1.28 µM | 0.163 µM | 1.14 µM | 2.19 µM | 12.8 | 5.7 | 21.4 | 10 | 5.3 | 100% | 109% | 89.1% | 39.5% | 12.6% | 92.9% | 106% | 114% | 80.5% | 44.6% | 107% | 108% | 77.4% | 1.3% | 1.1% | 96.9% | 105% | 92.3% | 58.4% | 5.8% | 99.8% | 111% | 101% | 91.6% | 29% |
| O=C(O)CCC(=O)OC[C@@H](NC(=O)C(Cl)Cl)[C@H](O)c1ccc([N+](=O)[O-])cc1 [chloramphenicol-sodium-succinate] | > 10 µM | > 10 µM | > 10 µM | > 10 µM | > 10 µM | 0 | 0 | 0 | 0 | 0 | 105% | 114% | 88.3% | 103% | 96.3% | 103% | 95.1% | 98.2% | 100% | 103% | 104% | 104% | 96.5% | 102% | 97.2% | 100% | 96.9% | 98.1% | 99.3% | 102% | 108% | 97.1% | 97.3% | 91% | 106% |
| Cc1nc(-c2cccnc2)sc1C(=O)Nc1ccccc1-c1cn2c(CN3CCOCC3)csc2n1 [SRT2104] | > 10 µM | > 10 µM | > 10 µM | > 10 µM | > 10 µM | 0 | 0 | 0 | 0 | 0 | 100% | 92.8% | 98.8% | 90.6% | 108% | 90.6% | 92.2% | 104% | 99.2% | 102% | 98% | 94.9% | 92.9% | 90.8% | 106% | 95.5% | 104% | 94.6% | 101% | 99.2% | 93.6% | 98.8% | 102% | 104% | 112% |
| NCCCCCCCCCCNS(=O)(=O)c1cccc2c(Cl)cccc12 [A-7] | > 10 µM | > 10 µM | > 10 µM | > 10 µM | > 10 µM | 0 | 0 | 0 | 0 | 0 | 112% | 102% | 98.6% | 108% | 95.8% | 108% | 95.5% | 107% | 99.7% | 97.3% | 97.3% | 98.4% | 95.2% | 101% | 94.7% | 99.2% | 106% | 97.4% | 99.8% | 93.9% | 97.8% | 98.8% | 96.5% | 95.9% | 95.1% |
| C=CC(=O)Nc1cccc(Oc2nc(Nc3ccc(N4CCN(C)CC4)cc3)ncc2Cl)c1 [WZ-3146] | 1.16 µM | 1.56 µM | 1.11 µM | 1.46 µM | 0.539 µM | 6.7 | 8.3 | 10.3 | 9.7 | 13.9 | 108% | 100% | 109% | 75% | 38.7% | 90.7% | 100% | 99.3% | 78.3% | 11.6% | 104% | 99.3% | 106% | 59.9% | 7.8% | 97.6% | 100% | 95.5% | 72.1% | 0.2% | 95.9% | 89.9% | 86.4% | 36.9% | 2.3% |
| CC(=O)NCCC(=O)N[C@@H](Cc1c[nH]cn1)C(=O)O [N-acetylcarnosine] | > 10 µM | > 10 µM | > 10 µM | > 10 µM | > 10 µM | 0 | 0 | 0 | 0 | 0 | 98.8% | 88.3% | 93.3% | 96.2% | 87.9% | 97.3% | 105% | 88.7% | 86.5% | 112% | 112% | 92.1% | 102% | 108% | 98.4% | 98% | 101% | 101% | 97.5% | 94.7% | 106% | 99.2% | 94.5% | 101% | 96.3% |
| CC(C)c1ccc2oc3nc(N)c(C(=O)O)cc3c(=O)c2c1 [amlexanox] | > 10 µM | > 10 µM | > 10 µM | > 10 µM | > 10 µM | 0 | 0 | 0 | 0 | 0 | 96.7% | 101% | 99.9% | 109% | 113% | 94% | 95.9% | 99.8% | 89.8% | 108% | 96.6% | 99.8% | 98.4% | 102% | 106% | 97.1% | 94.3% | 100% | 96.4% | 99.8% | 92.3% | 87.4% | 104% | 101% | 99.5% |
| C=CCNc1ncnc2ccc(Br)cc12 [SMER-28] | > 10 µM | > 10 µM | > 10 µM | > 10 µM | > 10 µM | 0.6 | 0 | 0 | 0 | 0.4 | 92.3% | 98% | 102% | 102% | 78.8% | 99.5% | 93.4% | 98.7% | 103% | 91.2% | 93.6% | 98.3% | 95.8% | 99.8% | 101% | 101% | 97% | 102% | 96.9% | 101% | 101% | 103% | 96.1% | 100% | 82.7% |
| CCC(=O)O[C@]1(C(=O)COC(C)=O)CC[C@H]2[C@@H]3C[C@H](C)C4=CC(=O)C=C[C@]4(C)[C@H]3[C@@H](O)C[C@@]21C [methylprednisolone-aceponate] | > 10 µM | > 10 µM | > 10 µM | > 10 µM | > 10 µM | 0 | 0 | 0 | 0 | 0 | 92.1% | 101% | 91.1% | 101% | 99.3% | 89.6% | 95.1% | 97.4% | 96.5% | 105% | 88% | 100% | 92.6% | 98.3% | 104% | 101% | 94.3% | 98.5% | 96.9% | 98.1% | 101% | 91.6% | 91.1% | 95.1% | 96.5% |
| O=C(O)CNC(=O)c1ccccc1I [2-iodohippuric-acid] | > 10 µM | > 10 µM | > 10 µM | > 10 µM | > 10 µM | 0 | 0 | 0 | 0 | 0 | 101% | 100% | 97.3% | 101% | 91.3% | 103% | 103% | 93.1% | 96.4% | 105% | 109% | 107% | 99.1% | 102% | 97.8% | 100% | 97.6% | 97.8% | 96.7% | 102% | 101% | 106% | 91.7% | 104% | 91.7% |
| CCCCCCCCCCC(CO)CCCCCCCC (stereo not given) [2-octyldodecan-1-ol] | > 10 µM | > 10 µM | > 10 µM | > 10 µM | > 10 µM | 0 | 0 | 0 | 0 | 0 | 96.8% | 95.8% | 102% | 102% | 98.3% | 96.1% | 103% | 98.9% | 93.1% | 98.2% | 98.4% | 97.3% | 97.4% | 93.5% | 99.7% | 96.6% | 98% | 97.3% | 101% | 95.9% | 98.5% | 88.2% | 98.2% | 100% | 102% |

Reference: the supplement of paper PMC13380429
